Laboratory results taken from patent US20120020926A1, “COMPOSITION COMPRISING CAFTARIC ACID AND/OR DERIVATIVES THEREOF” (NESTEC S.A., priority 2009, published 2012).
Where two headings read alike, the source gives them in different places.

Columns and labels:
[1] = system: L. johnsonii (CNCM I-1225) fresh cells; assay: Hydrolysis of caftaric acid with L. johnsonii (La1) fresh cells; format: in vitro ADME, Lactobacillus johnsonii; details: after 4 h reaction time, 37° C.
Procedure: Cells of L. johnsonii (CNCM I-1225) were grown (7.0 E08 cfu/ml) and centrifuged (5000 g, 10 min), the pellets were resuspended in phosphate buffer (50 mM, pH 7.0) at a concentration of 0.61 g/ml. To 100 μl of this cells solution, 100 μl of a solution of caftaric acid (12 mM) was added and the mixture was incubated at 37° C. Samples were withdrawn at different reaction times, centrifuged (3000 g, 5 min) and filtered through 0.45 μm pore size syringe filters (Millipore SLHA 025 BS) and analysed by HPLC.
A reaction control was run in parallel under the same reaction conditions but without bacteria.
(§1) HPLC-DAD analysis of caftaric acid and hydrolysis products was performed on a Agilent 1100 system equipped with a Atlantis C18 reverse-phase column (4.6×100 mm, particle size 3 μm) and a diode array detector. The column was equilibrated with water containing 0.1% formic acid. After injection, a linear gradient to a final solvent composition of 55% water and 45% acetonitrile (containing 0.1% formic acid) was run within 12 min at a flow rate of 1 ml/min. Caftaric acid and caffeic acid were monitored by UV at 320 nm and were quantified using standard calibration curves.

[2] = system: Nrf2-ARE pathway (AREc32 cells); assay: Antioxidant Responsive Element (ARE) luciferase assay; format: cell-based, human; details: for F/C (firefly luciferase activity): AREc reporter cell line, 24 h
[3] = system: chlorogenate esterase; details: Aspergillus japonicus, 1.85 mg/mL, pH 7
Procedure: A solution of chlorogenate esterase (0.8 mg, 24 U/g, from Kikkoman Japan) in 100 μl phosphate buffer (50 mM, pH 7.0) was added to a solution of caftaric acid (0.37 mg) in 100 μl phosphate buffer (50 mM, pH 7.0). The mixture was then incubated at 37° C. for 4 h. […] The supernatant was then analysed by HPLC. A reaction control was run in parallel under the same reaction conditions but without enzyme.
as §1

[4] = system: L. johnsonii (CNCM I-1225) crude cell extract
Procedure: (§2) Cells of L. johnsonii (CNCM I-1225) were grown (7.0 E08 cfu/ml) and centrifuged (5000 g, 10 min), the pellets were resuspended in phosphate buffer (50 mM, pH 7.0) at a concentration of 0.61 g/ml. The cells were then lysed using the glass-beads method. 600 μl of cells preparation were put into a Mini-Beadbeater for 1 min of intense shaking, cooled in ice, and put another 1 min in the Mini-Beadbeater. The crude cell extract (100 μl) was then added to 100 μl of a solution of caftaric acid (12 mM, phosphate buffer 50 mM, pH 7.0) and the mixture was incubated at 37° C. Samples were withdrawn at different reaction times, centrifuged (3000 g, 5 min), filtered through 0.45 μm pore size syringe filters (Millipore SLHA 025 BS) and analysed by HPLC.
as §1

[5] = system: spray-dried preparation of L. johnsonii; details: Lactobacillus johnsonii, 6 mM, pH 7
Procedure: 10 mg of a spray-dried preparation of L. johnsonii (3.3 E09 cfu/g) were dissolved in 100 μl of phosphate buffer (50 mM, pH 7.0). To this solution, 100 μl of a caftaric acid solution (12 mM, phosphate buffer 50 mM, pH 7.0) were added. The mixture was then incubated at 37° C. and samples were withdrawn at different reaction times. After centrifugation (3000 g, 5 min) and filtration (0.45 μm pore size syringe filters, Millipore SLHA 025 BS) the samples were analysed by HPLC.
as §1

[6] = system: L. johnsonii (CNCM I-1225) crude cell extract; assay: Hydrolysis of caftaric acid with La1 extract (lysed cells); details: after 2 h, 37° C.
Procedure: as §2, §1

[7] = system: liver metastasis; details: subcutaneous and oral administrations; cited from earlier work

Row | Structure (SMILES) | Hydrolysis of caftaric acid into caffeic acid by chlorogenate esterase (amount by HPLC) ([3]; 0 min) [%] | Hydrolysis of caftaric acid into caffeic acid by chlorogenate esterase (amount by HPLC) ([3]; 15 min) [%] | Hydrolysis of caftaric acid into caffeic acid by chlorogenate esterase (amount by HPLC) ([3]; 30 min) [%] | Hydrolysis of caftaric acid into caffeic acid by chlorogenate esterase (amount by HPLC) ([3]; 60 min) [%] | Hydrolysis of caftaric acid into caffeic acid by chlorogenate esterase (amount by HPLC) ([3]; 120 min) [%] | Hydrolysis of caftaric acid into caffeic acid by chlorogenate esterase (amount by HPLC) ([3]; 240 min) [%] | hydrolysis of caftaric acid into caffeic acid by a spray-dried preparation of La1 (amount by HPLC) ([5]; 0 min) | hydrolysis of caftaric acid into caffeic acid by a spray-dried preparation of La1 (amount by HPLC) ([5]; 15 min) | hydrolysis of caftaric acid into caffeic acid by a spray-dried preparation of La1 (amount by HPLC) ([5]; 30 min) | hydrolysis of caftaric acid into caffeic acid by a spray-dried preparation of La1 (amount by HPLC) ([5]; 60 min) | hydrolysis of caftaric acid into caffeic acid by a spray-dried preparation of La1 (amount by HPLC) ([5]; 120 min) | hydrolysis of caftaric acid into caffeic acid by a spray-dried preparation of La1 (amount by HPLC) ([5]; 240 min) | also measured
1 | O=C(/C=C/c1ccc(O)c(O)c1)O[C@@H](C(=O)O)[C@@H](O)C(=O)O [Caftaric acid] | 99 | 82 | 64 | 43 | 19 | 2 | 99 | 68 | 47 | 24 | 8 | 2 | transformation of caftaric acid into caffeic acid [1]: all caftaric acid was transformed into caffeic acid; Nrf2-luciferase reporter activity ([2]; AREc32 cells, saturation inactivation response at higher doses): positive dose-dependent response; F/C (firefly luciferase activity) ([2]; 125 μg/ml): 2796; F/C (firefly luciferase activity) ([2]; 250 μg/ml): 5821; F/C (firefly luciferase activity) ([2]; 500 μg/ml): 5182; F/C (firefly luciferase activity) ([2]; 750 μg/ml): 25792; F/C (firefly luciferase activity) ([2]; 1000 μg/ml): 4777; F/C (firefly luciferase activity) ([2]; 1200 μg/ml): 29043; reaction rate of hydrolysis as compared to whole cells [4]: increase of the reaction rate; transformation of caftaric acid into caffeic acid [6]: all caftaric acid acid was transformed into caffeic acid
2 | O=C(O)/C=C/c1ccc(O)c(O)c1 [Caffeic acid, Caffeic Acid] | 0 | 18 | 26 | 57 | 81 | 98 | 0 | 32 | 53 | 76 | 92 | 98 | liver metastasis [7]: significantly reduced liver metastasis
